Tests used:
PPAR-α = molecular target: T1, PPAR-α (Homo sapiens, UniProt Q07869); assay: Scintillation Proximity Assay (SPA), displacement of 3H labeled GW2331; format: binding; conditions: 3H GW2331 displacement, read-out: PPAR-alpha Ki
T1 sequence (Q07869 1-468): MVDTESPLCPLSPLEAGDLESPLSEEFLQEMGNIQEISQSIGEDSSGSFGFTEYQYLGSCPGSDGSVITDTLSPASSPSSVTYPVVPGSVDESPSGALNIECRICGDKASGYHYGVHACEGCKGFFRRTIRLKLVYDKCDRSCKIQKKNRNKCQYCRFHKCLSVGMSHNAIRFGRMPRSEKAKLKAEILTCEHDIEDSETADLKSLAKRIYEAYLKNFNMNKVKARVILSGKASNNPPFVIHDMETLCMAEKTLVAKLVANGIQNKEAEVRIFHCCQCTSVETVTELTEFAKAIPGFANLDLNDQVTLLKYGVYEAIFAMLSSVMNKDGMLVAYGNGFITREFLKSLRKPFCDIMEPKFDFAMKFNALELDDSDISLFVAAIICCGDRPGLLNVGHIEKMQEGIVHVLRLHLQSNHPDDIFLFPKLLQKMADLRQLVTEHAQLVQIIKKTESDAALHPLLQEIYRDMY
Excerpt: (§1) Scintillatian Proximity Assay (SPA) Assays
(§2) In the SPA assay, 3H labeled darglitazone (for PPAR-γ) or GW2331 (for PPAR-α) is bound to the PPAR protein captured on SPA polylysine beads and generates radioactive count signal that can be detected by TopCounts (Packard). The PPAR-bound 3H labeled ligand can be displaced by an unlabeled compound. The Ki of the compound can be then determined by the extent of displacement at various compound concentrations. Reagents: • SPA polylysine beads, which can be purchased from Amersham Bioscience. • H labeled Darglitazone for PPAR-γ. • H labeled GW2331 for PPAR-α. • PPAR proteins. • Buffer—PBS, 10% glycerol, 14 mM beta-mercaptoethanol.

PPAR-γ = molecular target: T2, PPAR-γ (Homo sapiens, UniProt P37231); assay: Scintillation Proximity Assay (SPA), displacement of 3H labeled darglitazone; format: binding; conditions: 3H darglitazone displacement, read-out: PPAR-gamma Ki
T2 sequence (P37231 1-505): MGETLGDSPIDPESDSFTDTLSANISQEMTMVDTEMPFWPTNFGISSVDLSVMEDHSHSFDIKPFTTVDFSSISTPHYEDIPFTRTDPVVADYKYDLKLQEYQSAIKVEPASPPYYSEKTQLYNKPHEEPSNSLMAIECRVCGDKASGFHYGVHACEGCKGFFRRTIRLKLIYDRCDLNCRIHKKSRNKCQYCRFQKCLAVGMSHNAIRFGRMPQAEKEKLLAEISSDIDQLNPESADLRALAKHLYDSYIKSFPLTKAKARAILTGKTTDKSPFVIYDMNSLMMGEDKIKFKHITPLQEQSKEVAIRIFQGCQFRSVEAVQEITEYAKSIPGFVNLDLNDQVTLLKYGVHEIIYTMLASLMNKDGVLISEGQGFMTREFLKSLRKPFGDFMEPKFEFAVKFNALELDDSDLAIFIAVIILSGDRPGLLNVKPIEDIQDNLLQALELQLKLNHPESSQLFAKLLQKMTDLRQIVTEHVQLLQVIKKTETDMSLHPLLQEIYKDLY
Excerpt: as §1, §2

Row | Ki (PPAR-α) [nM] | Ki (PPAR-γ) [nM] | Compound
1 | 54 |  | Cc1oc(-c2cccc(Cl)c2)nc1CCOc1ccc(CC2(C(=O)O)CCCO2)cn1 (centres unmarked) [Example C-59]
2 |  | 820 | Cc1oc(-c2ccccc2)nc1CCCCc1ccc(CC2(C(=O)O)CCCO2)cn1 (centres unmarked) [Example C-75]
3 | 3200 | 26000 | Cc1oc(-c2ccccc2)nc1COc1ccc(CC2(C(=O)O)CCC2)cc1 [Example C-17]
4 | 18 | 66 | Cc1oc(-c2ccc(Cl)c(Cl)c2)nc1CCOc1ccc(CC2(C(=O)O)CCC2)cc1 [Example C-25]
5 | 14 |  | Cc1oc(-c2ccc(Cl)cc2)nc1CCOc1ccc(CC2(C(=O)O)CCCO2)cn1 (centres unmarked) [Example C-64]
6 | 30 | 40 | Cc1cccc(-c2nc(CCOc3ccc(CC4(C(=O)O)CCCO4)cc3)c(C)o2)c1 (centres unmarked) [Example C-89]
7 | 240 | 310 | Cc1oc(-c2ccc(C#N)cc2)nc1CCOc1ccc(CC2(C(=O)O)CCCO2)cn1 (centres unmarked) [Example C-61]
8 |  | 6000 | Cc1oc(-c2ccccc2)nc1CCCOc1ccc(CC2(C(=O)O)CCCO2)nc1 (centres unmarked) [Example C-55]
9 | 7700 | 220 | CCOC(c1ccc(OCCc2nc(-c3ccccc3)oc2C)nc1)C1(C(=O)O)CCC1 (centres unmarked) [Example C-45]
10 | 13000 | 33000 | Cc1oc(-c2ccccc2)nc1COc1ccc(OC2(C(=O)O)CCC2)cc1 [Example C-42]
11 | 7300 | 2300 | Cc1oc(-c2ccccc2)nc1CCOc1ncc(CC2(C(=O)O)CCCO2)cn1 (centres unmarked) [Example C-76]
12 | 110 | 33 | Cc1oc(-c2cccc(C(F)(F)F)c2)nc1CCOc1ccc(CC2(C(=O)O)CCC2)cc1 [Example C-30]
13 | 21 |  | Cc1oc(-c2ccc(C(F)(F)F)cc2)nc1CCOc1ccc(CC2(C(=O)O)CCCO2)cn1 (centres unmarked) [Example C-63]
14 | 730 | 230 | COC(C)(Cc1ccc(OCCc2nc(-c3cccc(C)c3)oc2C)nc1)C(=O)O [Example D-36]
15 | 7100 |  | CS(=O)(=O)Oc1ccc(CCOc2ccc(CC3(C(=O)O)CCCO3)cn2)cc1 (centres unmarked) [Example C-72]
16 | 8300 |  | Cc1oc(-c2ccccc2)nc1CCOc1ccc(CC2(C(=O)O)CCCCC2)cn1 [Example C-47]
17 | 36000 |  | Cc1oc(-c2ccccc2)nc1CCOc1ccc(C(O)C2(C(=O)O)CCC2)cn1 (centres unmarked) [Example C-44]
18 | 240 |  | Cc1oc(-c2ccccc2)nc1CCOc1ccc(CC2(C(=O)O)CCCO2)cn1 (centres unmarked) [Example C-48, 2-({6-[2-(5-methyl-2-phenyl-1,3-oxazol-4-yl)ethoxy]pyridin-3-yl}methyl)tetrahydrofuran-2-carboxylic acid]
19 | 78 |  | Cc1oc(-c2ccccc2)nc1CCOc1ccc(CC2(C(=O)O)CCCCO2)cn1 (centres unmarked) [Example C-56]
20 | 65 |  | COc1ccc(-c2nc(CCOc3ccc(CC4(C(=O)O)CCCO4)cn3)c(C)o2)cc1 (centres unmarked) [Example C-60]
21 |  | 4200 | Cc1nc(CCOc2ccc(CC3(C(=O)O)CCCO3)cn2)c(C)s1 (centres unmarked) [Example C-68]
22 | 390 |  | Cc1oc(-c2ccccc2)nc1CCOc1ccc(CC2(C(=O)O)CCCC2)cc1 [Example C-02]
23 | 6400 |  | Cc1ccccc1CCOc1ccc(CC2(C(=O)O)CCCO2)cn1 (centres unmarked) [Example C-70]
24 | 2900 |  | Cc1oc(-c2ccccc2)nc1CCCOc1ccc(CC2(C(=O)O)CCCC2)cc1 [Example C-03]
25 | 15000 |  | Cc1oc(-c2ccccc2)nc1CCOc1ccc(CC2(C(=O)O)CCOCC2)cc1 [Example C-05]
26 | 9700 |  | Cc1ccc(CCOc2ccc(CC3(C(=O)O)CCCO3)cn2)cc1 (centres unmarked) [Example C-71]
27 |  | 16 | Cc1oc(-c2ccc(C(F)(F)F)c(F)c2)nc1CCOc1ccc(CC2(C(=O)O)CCCO2)cc1 (centres unmarked) [Example C-82]
28 | 31 |  | Cc1ccc(-c2nc(CCOc3ccc(CC4(C(=O)O)CCCO4)cn3)c(C)o2)cc1 (centres unmarked) [Example C-66]

The next lines start with the compound.

Row | Compound | Ki (PPAR-α) [nM] | Ki (PPAR-γ) [nM]
29 | O=C(O)C1(Oc2ccc(OCc3nc(-c4ccccc4)oc3-c3ccccc3)cc2)CCC1 [Example C-36] | 21000 | 1700
30 | Cc1nn(-c2ccccc2)nc1COc1cccc(-c2cccc(OC3(C(=O)O)CCC3)c2)c1 [Example A-18] | 14000 | 1700
31 | O=C(O)C1(Cc2ccc(OCCc3ccc(-c4ccc5c(c4)OCC5)cc3)cc2)CCC1 [Example C-12] | 9400 | 1600
32 | CC(Cc1ccccc1)OC(=O)NCc1cccc(OC(C)(C)C(=O)O)c1 (centres unmarked) [Example B-28] | 7800 | 
33 | COC(Cc1ccc(OCCc2nc(-c3ccc(C(F)(F)F)cc3)oc2C)nc1)C(=O)O [Example D-09] | 50 | 61
34 | COC(Cc1ccc(OCCc2ccc(Oc3ccccc3)cc2)nc1)C(=O)O [Example D-13] | 190 | 360
35 | CCOC(Cc1ccc(OCCc2ccc(OS(=O)(=O)CC)cc2)nc1)C(=O)O [Example D-18] | 620 | 450
36 | COC(Cc1ccc(OCCc2ccc(OS(C)(=O)=O)cc2)nc1)C(=O)O [Example D-12] |  | 8100
37 | CCOC(Cc1ccc(OCCc2nc(-c3ccc(Cl)cc3)oc2C)nc1)C(=O)O [Example D-15] | 220 | 350
38 | CCOC(Cc1ccc(OCCCc2nc(-c3ccccc3)oc2C)cn1)C(=O)O [Example D-24] | 930 | 
39 | CCC(Oc1cccc(CNC(=O)OCCCc2nc(-c3ccccc3)oc2C)c1)C(=O)O (centres unmarked) [Example B-18] | 82 | 
40 | COC(C)(Cc1ccc(OCCc2nc(-c3ccccc3)oc2C)cn1)C(=O)O [Example D-29] | 800 | 400
41 | COC(C)(Cc1ccc(OCCc2nc(-c3ccc(C(F)(F)F)cc3)oc2C)nc1)C(=O)O [Example D-31] | 88 | 1000
42 | CC(C)(Oc1cccc(CNC(=O)OCCc2cccc(C(F)(F)F)c2)c1)C(=O)O [Example B-03] | 9000 | 31000
43 | Cc1oc(-c2ccccc2)nc1COc1cccc(-c2cccc(OC(C)(C)C(=O)O)c2)c1 [Example A-24] | 18 | 780
44 | CC(C)(Oc1cccc(-c2cccc(OCc3ccc(C(F)(F)F)cc3)c2)c1)C(=O)O [Example A-02, 2-Methyl-2-[(3′-{[4-(trifluoromethyl)benzyl]oxy}1,1′-biphenyl-3-yl)oxy]propanoic acid] | 550 | 
45 | CCC(Oc1cccc(CNC(=O)OCc2ccc(OCc3ccccc3)cn2)c1)C(=O)O (centres unmarked) [Example B-11] | 960 | 7900

Row | Compound | Ki (PPAR-α) [nM] | Ki (PPAR-γ) [nM]
46 | Cc1ccc(N2CCC(CCOc3cccc(-c4cccc(OC(C)(C)C(=O)O)c4)c3)CC2)nn1 [Example A-03, 2-Methyl-2-[(3′-{2-[1-(6-methylpyridazin-3-yl)piperidin-4-yl]ethoxy}1,1′-biphenyl-3-yl)oxy]propanoic acid] | 19000 | 10000
47 | COc1ccc(-c2nc(CCOc3ccc(CC(OC)C(=O)O)cn3)c(C)o2)cc1 [Example D-07] | 320 | 17
48 | O=C(O)C1(Cc2ccc(OCCc3ccc(-c4ccc(F)cc4)cc3)cc2)CCC1 [Example C-07] | 22000 | 11000
49 | CCC(Oc1cccc(CNC(=O)OCc2ccc(-c3noc(C)n3)cc2)c1)C(=O)O (centres unmarked) [Example B-27] | 220 | 
50 | CCOC(Cc1ccc(OCCc2nc(C)sc2C)cn1)C(=O)O [Example D-25] |  | 2900
51 | COC(C)(Cc1ccc(OCCc2nc(C(C)C)oc2C)nc1)C(=O)O [Example D-38] |  | 9600
52 | CCOC(Cc1ccc(OCCc2ccc(OCCOC)cc2)nc1)C(=O)O [Example D-16] |  | 6400
53 | COC(C)(Cc1ccc(OCCc2nc(-c3cc(C)nn3C)oc2C)nc1)C(=O)O [Example D-39] |  | 5000
54 | COC(C)(Cc1ccc(OCCCc2nc(-c3ccccc3)oc2C)nc1)C(=O)O [Example D-27] |  | 7800
55 | CC(C)(Oc1cccc(CNS(=O)(=O)c2ccc(Oc3ccccc3)cc2)c1)C(=O)O [Example B-20] | 1600 | 
56 | COC(C)(Cc1ccc(OCCc2nc(-c3ccccc3)oc2C)nc1)C(=O)O [Example D-35] | 330 | 
57 | Cc1oc(-c2ccccc2)nc1CCOc1cccc(-c2cccc(OC3(C(=O)O)CCC3)c2)n1 [Example A-07] | 120 | 
58 | CC(C)(C)OC(=O)Nc1ccc(CCOc2ccc(CC3(C(=O)O)CCCO3)cn2)cc1 (centres unmarked) [Example C-73] |  | 42
59 | CCC(Oc1cccc(CNC(=O)OCCc2nc(-c3ccccc3)oc2C)c1)C(=O)O (centres unmarked) [Example B-13] | 9000 | 
60 | COC(C)(Cc1ccc(OCCc2ccc(OC(F)(F)F)cc2)nc1)C(=O)O [Example D-41] | 5900 | 
61 | CCC(Oc1cccc(CNC(=O)OCCc2cccc(C(F)(F)F)c2)c1)C(=O)O (centres unmarked) [Example B-02] | 2200 | 
62 | O=C(O)C1(Cc2ccc(OCCCc3nc(-c4ccccc4)oc3-c3ccccc3)cc2)CCC1 [Example C-38] |  | 7200

— US20050234066A1, “Alpha substituted carboxylic acids” (Agouron Pharmaceuticals, Inc., priority 2004, published 2005)
